Source: paper PMC2829070 (PLoS Pathogens, 2010)
Where “and” joins values, the source holds several entries; their conditions need not be identical. Identical values can stand only once.

Legend:
HN30408cl7 (H5N1) [1] = test system: HN30408cl7 (H5N1); set-up: species or system BALB/c mice; details: mouse, in vivo
Ind3006 (H5N1) [2] = format: in vivo, BALB/c mice; details: 21 days
HN30408cl7 (H5N1) [3] = test system: HN30408cl7 (H5N1); set-up: species or system BALB/c mice; Virus titers in Lungs, Day 6 / Virus titers in Lungs, Day 9 / Virus titers in Brain, Day 9: unit not given here; details: mouse, in vivo
HN30408cl7 (H5N1) [4] = format: in vivo, BALB/c mice; details: 21 days
Ind3006 (H5N1) [5] = test system: Ind3006 (H5N1); set-up: species or system BALB/c mice; Virus titers in Lungs, Day 6 / Virus titers in Brain, Day 6: unit not given here; details: mouse, in vivo
HN30408cl7 (H5N1) [6] = test system: HN30408cl7 (H5N1); set-up: species or system BALB/c mice; Virus titer in Lungs, Day 3 / Virus titer in Lungs, Day 6: unit not given here; details: mouse, in vivo
[7] = target: NA of Ind3006 (A/Indonesia/UT3006/05, H5N1) (Influenza A virus, UniProt I6YWY9); assay: biochemical
NA of B/Mie/1/93 = format: binding, influenza B virus
[8] = test system: NA of A/New Caledonia/20/99 (H1N1); format: binding, influenza A virus (H1N1)
[9] = test system: NA of A/Panama/2007/99 (H3N2); format: binding, influenza A virus (H3N2)

Row | Compound | prophylactic efficacy (survival) (HN30408cl7 (H5N1) [1]) | mice protected from lethal infection (Ind3006 (H5N1) [2]) | Virus titers in Brain, Day 3 (HN30408cl7 (H5N1) [3]) | mice protected from lethal infection (HN30408cl7 (H5N1) [4]) | Virus titers in Brain, Day 3 (Ind3006 (H5N1) [5]) | Virus titers in Brain, Day 6 (Ind3006 (H5N1) [5]) | Virus titers in Brain, Day 9 (Ind3006 (H5N1) [5]) | Virus titers in Lungs, Day 6 (Ind3006 (H5N1) [5]) | Virus titers in Lungs, Day 9 (Ind3006 (H5N1) [5]) | Virus titer in Brain, Day 3 (HN30408cl7 (H5N1) [6]) | IC50 [7] [nM] | Slope of the dissociation curve (NA of B/Mie/1/93) | Slope of the dissociation curve [8] | Slope of the dissociation curve [9] | further results
1 | [H]/N=C(\N)N[C@H]1C=C(C(=O)O)O[C@@H]([C@H](OC)[C@H](O)COC(=O)CCCCCCC)[C@@H]1NC(C)=O [CS-8958] | limited | 70% | <1.6 | 90% | <1.6 | <1.6 | <1.6 | 7.2±0.1 and 4.5±1.4 | <1.7 | <1.6 | – | – | – | – | protection from the lethal infection (prophylaxis) (HN30408cl7 (H5N1) [1]): significantly protected; Virus titers in Brain, Day 6 (HN30408cl7 (H5N1) [3]): 2.0±0.3 and <1.6
2 | CCC(CC)O[C@@H]1C=C(C(=O)O)C[C@H](N)[C@H]1NC(C)=O [Oseltamivir carboxylate] | – | – | – | – | – | – | – | – | – | – | 10 | 381.21 | 173.34 | 6.97 | recovery of NA activity (NA of B/Mie/1/93): almost fully recovered
3 | CCOC(=O)C1=C[C@@H](OC(CC)CC)[C@H](NC(C)=O)[C@@H](N)C1 [Oseltamivir phosphate] | limited | less than half | <1.6 | less than half | <1.6 | 3.1±0.3 and 2.6±0.1 and 3.2±1.2 and 3.3±0.9 | <1.6 | 7.5±0.2 and 7.4±0.2 and 7.4±0.1 and 7.2±0.1 | <1.7 | <1.6 | – | – | – | – | mice saved from lethal infection (Ind3006 (H5N1) [2]): 50%; Virus titers in Brain, Day 9 (HN30408cl7 (H5N1) [3]): 4.8 and 4.7±0.4 and 3.7 and 5.1; Virus titers in Lungs, Day 3 (HN30408cl7 (H5N1) [3]): 6.0±0.1 and 5.0±0.6 and 6.2±0.2; Virus titers in Lungs, Day 6 (HN30408cl7 (H5N1) [3]): 5.2±0.1 and 5.5±0.4 and 3.8±0.5 and 6.4±0.6; Virus titers in Lungs, Day 9 (HN30408cl7 (H5N1) [3]): 4.9±1.8 and 4.7±0.6 and 4.7±1.4 and 6.1; mice saved from lethal infection (HN30408cl7 (H5N1) [4]): 90%; Virus titers in Lungs, Day 3 (Ind3006 (H5N1) [5]): 7.5±0.1 and 7.2±0.1 and 7.1±0.2; Virus titer in Brain, Day 6 (HN30408cl7 (H5N1) [6]): 2.6 and <1.6; Virus titer in Lungs, Day 3 (HN30408cl7 (H5N1) [6]): 5.5±0.7 and 4.3±1.9 and 3.2±2.9 and 5.8±0.8; Virus titer in Lungs, Day 6 (HN30408cl7 (H5N1) [6]): 5.6±0.4 and 6.1±0.2 and 6.0±0.0 and 6.0±0.4
4 | CC(=O)N[C@H]1[C@H]([C@H](O)[C@H](O)CO)OC(C(=O)O)=C[C@@H]1N=C(N)N [Zanamivir] | – | – | – | – | – | – | – | – | – | – | 0.07 | 184.10 | 140.10 | 2.10 | –
5 | Peramivir | – | – | – | – | – | – | – | – | – | – | – | 180.66 | 43.10 | 0.19 | Slope difference (NA of B/Mie/1/93): -773.42; Slope difference [8]: -456.52; Slope difference [9]: -48.81
